Test results reported in ChEMBL document CHEMBL1938377, “Synthesis and evaluation of 17α-E-20-(heteroaryl)norpregn-1,3,5(10),20 tetraene-3,17β-diols [17α-(heteroaryl)vinyl estradiols] as ligands for the estrogen receptor-α ligand binding domain (ERα-LBD)” (Bioorg Med Chem Lett, 2012).
The source made the active and inactive calls. The calls are words filed in the database; no cut-off is given here.

Columns and labels:
[1] = Agonist activity at estrogen receptor in human Ishikawa cells assessed as increase of alkaline phosphatase level after 3 days using P-nitrophenyl phosphate as substrate relative to estradiol; type: functional
Ishikawa = experiment: Antagonist activity at estrogen receptor in human Ishikawa cells assessed as inhibition of estradiol-induced alkaline phosphatase level after 3 days using P-nitrophenyl phosphate as substrate; type: functional, cell-based
[2] = target: T1, Estrogen receptor (Homo sapiens) (UniProt P03372); experiment: Displacement of [3H]-estradiol from human […] LBD expressed in Escherichia coli at 1 uM to 1 pM relative to estradiol
T1 sequence (whole entry): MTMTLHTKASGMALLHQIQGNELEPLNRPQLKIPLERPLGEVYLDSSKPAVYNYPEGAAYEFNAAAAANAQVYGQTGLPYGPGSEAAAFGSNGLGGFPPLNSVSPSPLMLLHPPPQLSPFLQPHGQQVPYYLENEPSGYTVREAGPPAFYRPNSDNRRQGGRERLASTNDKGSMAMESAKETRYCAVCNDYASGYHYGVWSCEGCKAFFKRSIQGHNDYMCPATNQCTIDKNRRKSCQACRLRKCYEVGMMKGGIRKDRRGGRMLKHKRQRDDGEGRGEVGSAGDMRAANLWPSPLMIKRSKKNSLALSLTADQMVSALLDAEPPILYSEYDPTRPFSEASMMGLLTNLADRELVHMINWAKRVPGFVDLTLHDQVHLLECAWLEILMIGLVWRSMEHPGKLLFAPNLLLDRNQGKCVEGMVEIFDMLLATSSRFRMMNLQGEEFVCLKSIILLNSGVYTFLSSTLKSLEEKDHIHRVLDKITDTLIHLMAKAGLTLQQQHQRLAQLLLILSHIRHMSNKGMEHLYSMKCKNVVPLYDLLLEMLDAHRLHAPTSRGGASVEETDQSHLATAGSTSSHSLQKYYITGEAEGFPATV

[3] = Agonist activity at estrogen receptor in human Ishikawa cells assessed as increase of alkaline phosphatase level after 3 days using P-nitrophenyl phosphate as substrate; type: functional, cell-based; settings: 72 h

Row | SMILES | RSA [1] | inhibition (Ishikawa) | RBA [2] | EC50 [3]
1 | C[C@]12CC[C@@H]3c4ccc(O)cc4CC[C@H]3[C@@H]1CC[C@@]2(O)/C=C/c1ccncc1 | 0.1% | inactive | 2.5 | –
2 | C[C@]12CC[C@@H]3c4ccc(O)cc4CC[C@H]3[C@@H]1CC[C@@]2(O)/C=C/c1ccccc1 | 9.5% | inactive | 10.3 | –
3 | C[C@]12CC[C@@H]3c4ccc(O)cc4CC[C@H]3[C@@H]1CC[C@@]2(O)/C=C/c1cccnc1 | 0.25% | inactive | 4 | –
4 | C[C@]12CC[C@@H]3c4ccc(O)cc4CC[C@H]3[C@@H]1CC[C@@H]2O [ESTRADIOL] | – | – | – | 0.9 nM
5 | C[C@]12CC[C@@H]3c4ccc(O)cc4CC[C@H]3[C@@H]1CC[C@@]2(O)/C=C/c1ccsc1 | 2.5% | inactive | 2.9 | –
6 | C[C@]12CC[C@@H]3c4ccc(O)cc4CC[C@H]3[C@@H]1CC[C@@]2(O)/C=C/c1ccccn1 | 0.1% | inactive | 1.5 | –
7 | C[C@]12CC[C@@H]3c4ccc(O)cc4CC[C@H]3[C@@H]1CC[C@@]2(O)/C=C/c1cccs1 | 2.5% | inactive | 2.7 | –
8 | C[C@]12CC[C@@H]3c4ccc(O)cc4CC[C@H]3[C@@H]1CC[C@@]2(O)/C=C/c1cncnc1 | 0.4% | inactive | 0.8 | –
